The text below walks through data of US20240300913A1, “FLAVONE DERIVATIVE AND USE THEREOF FOR IMPROVING PULMONARY FIBROSIS” (A-CHEMBIO CO., LTD, priority 2023, published 2024).

The subject of series [1] is A549 cells. The series can be described thus: MTT cytotoxicity evaluation in A549 cells. The settings on record: all treatment concentrations up to 20 μM, incubated for 24, 48, and 72 hours, compared to untreated control. It counts as cell-based. As for the experimental part: To confirm the effect of novel flavone derivative I on cell viability, A549 cells, derived from lung cancer, were used to examine cell viability with MTT [3-(4,5-dimethylthiazol-2-yl)-2,5-diphenyltetrazolium bromide]. After being suspended in a medium, A549 cells were dispensed into a 96-well plate and incubated for 24 hours. After 24 hours, 200 μL of a medium containing 0 to 20 μM BGC was added to each well of the plate and incubated for 24 or 48 hours. After incubation, MTT was diluted (0.5 mg/ml) in phosphate-buffered saline (PBS). Then, 20 μL of the diluted MTT was dispensed into each well, and incubation was performed in a CO2 incubator for 4 hours. After 4 hours, the MTT solution was removed, and 200 μL of dimethyl sulfoxide (DMSO) was dispensed into each well to dissolve the formazan precipitate for 5 minutes. Next, the absorbance was measured at 595 nm.
(§1) Cytotoxicity tests of novel flavone derivative II (Achem II) on A549 cells, HULEC-5a cells, and HLF cells were performed in the same manner as in Example 1 above, using the MTT assay. The results thereof are shown in FIGS. 17 to 19 as cell viability (%) after 24, 48, and 72 hours compared to that of the control group, the untreated sample group.
(§2) Cytotoxicity tests of novel flavone derivative III (Achem III) on A549 cells, HULEC-5a cells, and HLF cells were performed in the same manner as in Example 1 above, using the MTT assay. The results thereof are shown in FIGS. 27 to 29 as cell viability (%) after 24, 48, and 72 hours compared to that of the control group, the untreated sample group.

Series [2] has as its system HULEC-5a cells. The series can be described thus: MTT cytotoxicity evaluation in HULEC-5a cells. The class given is cell-based, human. Conditions: compared to untreated control. As for the experimental part:
(§3) To confirm the effect of novel flavone derivative I on cell viability, HULEC-5a, human lung microvascular endothelial cells, were used to examine cell viability with MTT [3-(4,5-dimethylthiazol-2-yl)-2,5-diphenyltetrazolium bromide]. After being suspended in a medium, HULEC-5a cells were dispensed into a 96-well plate and incubated for 24 hours. […] After incubation, all media was removed, and MTT was diluted (0.5 mg/mL) in phosphate-buffered saline (PBS). Then, 200 μL of the diluted MTT was dispensed into each well, and incubation was performed in a CO2 incubator for 4 hours. After 4 hours, the MTT solution was removed, and 160 μL of dimethyl sulfoxide (DMSO) was dispensed into each well to dissolve the formazan precipitate for 30 minutes. Next, the absorbance was measured at 570 nm.
as §1, §2

The test system of series [3] is HLF cells. The series can be described thus: MTT cytotoxicity evaluation in HLF cells. It counts as cell-based, human. Conditions: concentrations of 15 and 20 μM, incubated for 24 hours, compared to untreated control. As to the method:
as §3, with “viability,” for “viability, HULEC-5a,”, “fibroblasts (HLF)” for “microvascular endothelial cells,”, “HLF” for “HULEC-5a”
as §1, §2

In series [4] the test system is A549 cells. As to the kind of experiment: Effect upon TGF-β1 treatment in A549 cells (western blot of protein levels). The class given is cell-based. Conditions: 5 ng/mL TGF-β1 and compound, 24 hours, FIG. 30. As for the experimental part: 3.5*10^5 A549 cells, derived from lung cancer, were suspended in a medium, dispensed into a 60-mm plate, and incubated for 48 hours. After 48 hours of incubation, each plate was treated with TGF-β1 (10 ng/ml) alone or in combination with novel flavone derivative I at varying concentrations or a predetermined concentration and/or nintedanib (NIDB), a therapeutic drug for idiopathic pulmonary fibrosis and interstitial lung disease as a positive control. […] Next, only the supernatant was collected by centrifugation (at 14,000 rpm for 10 minutes) at 4° C., and the proteins were separated by SDS-polyacrylamide gel electrophoresis (SDS-PAGE). The separated proteins were transferred to a polyvinylidene difluoride membrane (PVDF membrane), reacted in 5% nonfat dry milk for 3 hours, and then reacted with primary antibodies at 4° C. for 12 hours. After 12 hours, the proteins further reacted with secondary antibodies corresponding to the respective primary antibodies. Then, the protein band was examined, according to the manufacturer's protocol, using an ECL kit.
The effect of novel flavone derivative II upon TGF-β1 treatment in A549 cells was evaluated in the same manner as in Example 1 above. FIGS. 20 and 21 show the results thereof.
The effect of novel flavone derivative III upon TGF-β1 treatment in A549 cells was evaluated in the same manner as in Example 1 above.

Series [5] concerns HULEC-5a cells. The series can be described thus: Effect upon TGF-β1 treatment in Hulec-5a cells (western blot of protein levels). It counts as cell-based, human. Conditions: Hulec-5a cells, 5 ng/mL TGF-β1 and compound, 24 hours, FIG. 31. As for the experimental part: (§4) 1.2×10^6 Hulec-5a cells, derived from pulmonary vessels, were suspended in a medium, dispensed into a 100-mm plate, and incubated for 24 hours. After 24 hours of incubation, each plate was treated with TGF-β1 (10 ng/ml) alone or in combination with novel flavone derivative I at varying concentrations or a predetermined concentration and/or nintedanib (NIDB), a therapeutic drug for idiopathic pulmonary fibrosis and interstitial lung disease. After 3, 24, and 48 hours of incubation, the cells were lysed with RIPA lysis buffer ([50 mM Tris]-Cl (pH, 7.4), 1% NP-40, 150 mM NaCl, 1 mM EDTA, and 1 mM phenylmethylsulfonyl fluoride (PMSF)) containing MG-132 (10 μM, proteasome inhibitor, protect the HIF-1α subunit from proteasome degradation). Next, only the supernatant was collected by centrifugation (at 13,000 rpm for 7 minutes) at 4° C., and the proteins were separated by SDS-polyacrylamide gel electrophoresis (SDS-PAGE). The separated proteins were transferred to a polyvinylidene difluoride membrane (PVDF membrane), reacted in 5% nonfat dry milk for 2 hours, and then reacted with primary antibodies at 4° C. overnight. After overnight, the proteins further reacted with secondary antibodies corresponding to the respective primary antibodies. Then, the protein band was examined, according to the manufacturer's protocol, using an ECL kit.
The effect of novel flavone derivative II upon TGF-β1 treatment in Hulec-5a cells was evaluated in the same manner as in Example 1 above.
The effect of novel flavone derivative III upon TGF-β1 treatment in Hulec-5a cells was evaluated in the same manner as in Example 1 above.
A general note: A western blot detects proteins with antibodies after separation by electrophoresis.

The subject of series [6] is HLF cells. As to the kind of experiment: Effect upon TGF-β1 treatment in HLF cells (western blot of protein levels). The class given is cell-based, human. Conditions: 5 ng/mL TGF-β1 and compound, 24 hours, FIG. 32. As for the experimental part:
as §4, with “After suspending 5×10^6 human lung fibroblast (HLF) cells in a medium, […]” for “1.2×10^6”, “[…]” for “in a”, “hours. […]” for “hours.”, “24” for “24 hours of incubation, each plate was treated with TGF-β1 (10 ng/ml) alone or in combination with novel flavone derivative I at varying concentrations or a predetermined concentration and/or nintedanib (NIDB), a therapeutic drug for idiopathic pulmonary fibrosis and interstitial lung disease. After 3, 24,”
The effect of novel flavone derivative II upon TGF-β1 treatment in HLF cells was evaluated in the same manner as in Example 1 above.
The effect of novel flavone derivative III upon TGF-β1 treatment in HLF cells was evaluated in the same manner as in Example 1 above.

Each structure is given as a SMILES string.

For orientation: cell viability means a per cent measure of how many cells are alive, often set against a control. The low end stands for more harm to the cells, the high end for less harm to the cells. As to `COc1ccc(-c2c(-c3ccc(O)c(OC)c3)oc3cc(OC)c(OC)cc3c2=O)cc1` [novel flavone derivative III, 2-(4-hydroxy-3-methoxyphenyl)-6,7-dimethoxy-3-(4-methoxyphenyl)-4H-chromen-4-one], the cell viability in the series with A549 cells [1] is at least 80%; in the series on HULEC-5a cells [2] (concentration of 20 μM, incubated for 24 hours) it was at most 80%; in the series with HULEC-5a cells [2] (concentrations up to 15 μM, incubated for 24, 48, and 72 hours) it was at least 80%; in the series with HLF cells [3], at most 80%. Besides, the “levels of fibronectin, COL4, and COL3, increased by TGF-β1 treatment” value in the series on A549 cells [4] and in the series on HULEC-5a cells [5] was “decreased” in each case. The “levels of fibronectin, COL4, COL1, α-SMA, HIF-1α, and NOX2, increased by TGF-β1 treatment” value with HLF cells [6] is given as “decreased”.
